Test results from the supplement of paper PMC6045584.
± gives the standard deviation of the averaged measurements.

Legend:
[1] = compound: O=C(NOCC1CC1)c1ccc(F)c(F)c1Nc1ccc(I)cc1Cl; assay: surviving fraction relative to DMSO-only wells; higher = less growth inhibition; settings: exposure time: 5 days
Summary of the method: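 After seeding at 250–500 cells per well in 384-well plates and a 24-hour wait, log-phase tumour cell lines were exposed without interruption for five days to inhibitors at 0.5, 1, 5, 10, 50, 100, 500 and 1000 nM. CellTiter-Glo luminescence was recorded after 10 minutes at room temperature. Viability is reported as surviving fraction, the luminescence normalised to the median of DMSO-only wells.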

VINORELBINE = compound: CCC1=C[C@@H]2CN(C1)Cc1c([nH]c3ccccc13)[C@@](C(=O)OC)(c1cc3c(cc1OC)N(C)[C@H]1[C@@](O)(C(=O)OC)[C@H](OC(C)=O)[C@]4(CC)C=CCN5CC[C@]31[C@@H]54)C2 [VINORELBINE]; assay: area under dose-response curve of surviving fraction (unscaled, Aref=0) (surviving fraction x log10(nM)); higher = more resistant; settings: exposure time: 5 days; dose range 0.5-1000 nM
Summary of the method: (§1)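 Tumour cell lines in 384-well plates were exposed for five days to eight inhibitor concentrations from 0.5 to 1000 nM. Viability was read by CellTiter-Glo luminescence, normalised to DMSO-only wells, in three screens per line. Dose-response survival curves were fitted to surviving fractions by 3-parameter logistic regression in the drc R package. Area under the curve is the unscaled activity area (Aref = 0) over log10 dose.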

ETOPOSIDE = compound: COc1cc([C@@H]2c3cc4c(cc3[C@@H](O[C@@H]3O[C@@H]5CO[C@@H](C)O[C@H]5[C@H](O)[C@H]3O)[C@H]3COC(=O)[C@H]23)OCO4)cc(OC)c1O [ETOPOSIDE]; assay: as above; settings: exposure time: 5 days; dose range 0.5-1000 nM
Summary of the method: as §1

METHOTREXATE = compound: CN(Cc1cnc2nc(N)nc(N)c2n1)c1ccc(C(=O)N[C@@H](CCC(=O)O)C(=O)O)cc1 [METHOTREXATE]; assay: as above; settings: exposure time: 5 days; dose range 0.5-1000 nM
Summary of the method: as §1

ERLOTINIB = compound: C#Cc1cccc(Nc2ncnc3cc(OCCOC)c(OCCOC)cc23)c1 [ERLOTINIB]; assay: as above; settings: exposure time: 5 days; dose range 0.5-1000 nM
Summary of the method: as §1

[2] = compound: O=C(NOCC1CC1)c1ccc(F)c(F)c1Nc1ccc(I)cc1Cl; assay: as above; settings: exposure time: 5 days; dose range 0.5-1000 nM
Summary of the method: as §1

GEMCITABINE = compound: Nc1ccn([C@@H]2O[C@H](CO)[C@@H](O)C2(F)F)c(=O)n1 [GEMCITABINE]; assay: as above; settings: exposure time: 5 days; dose range 0.5-1000 nM
Summary of the method: as §1

MK2206 = compound: NC1(c2ccc(-c3nc4ccn5c(=O)[nH]nc5c4cc3-c3ccccc3)cc2)CCC1 [MK2206]; assay: as above; settings: exposure time: 5 days; dose range 0.5-1000 nM
Summary of the method: as §1

[3] = compound: Cc1nc(Nc2n[nH]c3c2CN(C(=O)N[C@H](CN(C)C)c2ccccc2)C3(C)C)c2sccc2n1; assay: as above; settings: exposure time: 5 days; dose range 0.5-1000 nM
Summary of the method: as §1

EVEROLIMUS = compound: CO[C@H]1C[C@@H]2CC[C@@H](C)[C@@](O)(O2)C(=O)C(=O)N2CCCC[C@H]2C(=O)O[C@H]([C@H](C)C[C@@H]2CC[C@@H](OCCO)[C@H](OC)C2)CC(=O)[C@H](C)/C=C(\C)[C@@H](O)[C@@H](OC)C(=O)[C@H](C)C[C@H](C)/C=C/C=C/C=C/1C [EVEROLIMUS]; assay: as above; settings: exposure time: 5 days; dose range 0.5-1000 nM
Summary of the method: as §1

AZD4547 = compound: COc1cc(CCc2cc(NC(=O)c3ccc(N4CC(C)NC(C)C4)cc3)n[nH]2)cc(OC)c1 [AZD4547]; assay: as above; settings: exposure time: 5 days; dose range 0.5-1000 nM
Summary of the method: as §1

PLX-4720 = compound: CCCS(=O)(=O)Nc1ccc(F)c(C(=O)c2c[nH]c3ncc(Cl)cc23)c1F [PLX-4720]; assay: as above; settings: exposure time: 5 days; dose range 0.5-1000 nM
Summary of the method: as §1

| Test System | surviving fraction ([1]; 0.5 nM) | surviving fraction ([1]; 1 nM) | surviving fraction ([1]; 5 nM) | surviving fraction ([1]; 10 nM) | surviving fraction ([1]; 50 nM) | surviving fraction ([1]; 100 nM) | surviving fraction ([1]; 500 nM) | surviving fraction ([1]; 1000 nM) | area under dose-response curve (VINORELBINE) | area under dose-response curve (ETOPOSIDE) | area under dose-response curve (METHOTREXATE) | area under dose-response curve (ERLOTINIB) | area under dose-response curve [2] | area under dose-response curve (GEMCITABINE) | area under dose-response curve (MK2206) | area under dose-response curve [3] | area under dose-response curve (EVEROLIMUS) | area under dose-response curve (AZD4547) | area under dose-response curve (PLX-4720) |
| --- | --- | --- | --- | --- | --- | --- | --- | --- | --- | --- | --- | --- | --- | --- | --- | --- | --- | --- | --- |
| C33A CERVIX | 0.68 ± 0.058 | 0.7503 ± 0.0031 | 0.868 ± 0.12 | 0.841 ± 0.071 | 0.736 ± 0.085 | 0.686 ± 0.047 | 0.477 ± 0.066 | 0.461 ± 0.032 | 1.62 | 2.61 | 2.33 | 3.19 | 2.3 | 1.15 | 3.12 | 0.95 | 1.43 | 3.03 | – |
| CAL72 BONE | 1.045 ± 0.0036 | 1.065 ± 0.0074 | 1.07 ± 0.012 | 1.09 ± 0.041 | 1.051 ± 0.0061 | 1.085 ± 0.0095 | 1.07 ± 0.021 | 1.056 ± 0.0038 | 2.14 | 3.1 | 2.39 | 3.5 | 3.52 | 1.4 | 3.66 | 1.77 | 2.27 | 1.94 | 3.44 |
| G292 BONE | 0.986 ± 0.059 | 0.942 ± 0.064 | 0.985 ± 0.052 | 0.986 ± 0.035 | 0.967 ± 0.041 | 0.959 ± 0.058 | 0.897 ± 0.047 | 0.924 ± 0.0059 | 1.48 | 2.76 | 3.41 | 3.44 | 3.17 | 1.39 | 2.96 | 1.22 | 1.68 | 1.58 | 3.19 |
| HCC1395 BREAST | 0.997 ± 0.2 | 0.963 ± 0.14 | 0.951 ± 0.17 | 0.958 ± 0.2 | 0.838 ± 0.14 | 0.96 ± 0.052 | 0.86 ± 0.075 | 0.979 ± 0.042 | 2.74 | 3.25 | 3.78 | 3.97 | 3.01 | – | 3.23 | 3.37 | 3.36 | 2.6 | 2.7 |
| HUO3N1 BONE | 1.04 ± 0.051 | 1.01 ± 0.056 | 1.05 ± 0.03 | 1.04 ± 0.029 | 1.03 ± 0.037 | 1.01 ± 0.011 | 0.935 ± 0.017 | 1 ± 0.029 | 2 | 2.97 | 2.8 | 3.54 | 3.35 | 1.51 | 2.94 | 2.38 | 2.1 | 2.9 | 3.12 |
| LNCAP PROSTATE | 0.795 ± 0.11 | 0.855 ± 0.081 | 0.828 ± 0.11 | 0.99 ± 0.11 | 0.854 ± 0.17 | 0.921 ± 0.094 | 0.945 ± 0.024 | 0.884 ± 0.18 | 1.23 | 2.68 | 2.36 | 3.2 | 2.93 | 1.22 | 2.02 | 0.726 | 1.21 | 2.84 | 3.17 |
| SCC003 HEADNECK | 0.843 ± 0.1 | 0.826 ± 0.05 | 0.942 ± 0.11 | 0.907 ± 0.086 | 0.917 ± 0.079 | 0.924 ± 0.056 | 0.689 ± 0.037 | 0.648 ± 0.033 | 1.98 | – | 2.41 | 3.14 | 2.83 | 1.57 | – | 1.57 | – | – | 2.97 |
